The subject of one data set is Hep G2 cells. Kind of data set: Cellular uptake of 5FU 1-mer conjugates by Hep G2 cells. The class given is cell-based, human. How it is done: Hep G2 cells were passaged into 2 cm^2 wells and grown in RPMI 1640 medium, which was supplemented with L-glutamine (10-040, CV) to a density of 0.3×10^6 to 0.4×10^6 cells per well (48-well cluster plate, Costar, Cambridge, Mass.). […] Then, an aliquot of the medium was saved for scintillation counting and the remainder of the medium aspirated from the well. The cells were washed with D-PBS (2×0.5 ml), treated with 0.25% trypsin (37° C., 2 minutes; trypsin prepared in HBSS with 1.0 mM EDTA) and suspended in fresh growth medium containing 10% FCS. The suspended cells were layered over silicon oil (0.5 ml) in a 1.7 ml conical microcentrifuge tube and pelleted by centrifugation at 14,000 rpm (12,000 g) for 30 seconds. The supernatant was carefully decanted and the cell pellet was lysed with 100 μl of a solution containing 0.5% NP 40, 100 mM sodium chloride, 14 mM Tris/HCl and 30% acetonitrile. The amount of radioactivity, and by inference the amount of neoglycoconjugate or oligomer associated with the cell lysate, was determined by scintillation counting.

In data set [1] the test system is Hep G2 human hepatoma xenografts. Kind of data set: Bioefficacy against human hepatoma (Hep G2) xenografts in nude mice. It counts as in vivo, CD-1 nude mice. The text has this: Xenotransplanted tumors have been previously shown to be responsive to 5FU chemotherapy as assayed by direct physical measurement of the tumor (Houghton et al., Biochem. Pharmacol., 36, 1285-1289 (1987)), histological changes and biochemical measurements, such as alpha-fetoprotein (AFP) levels (Lemoine et al., Pathol. Biol. (Paris), 47, 903-910 (1999)) and thymidylate synthase levels (Peters et al., J. Clin Oncol., 12, 2035-2042 (1994)). The xenograft tumors in nude mice are a widely used model for tumor studies that allows for direct measurement of the growth of human tumors. Male CD-1 nude mice (6-8 weeks old, 20-22 g in weight) were used for these bioefficacy studies. An injection of 10^8 Hep G2 cells was made subcutaneously into the subcapsular region of each mouse. Mice were observed daily for tumor formation. After tumors emerged, they were measured twice a week in two dimensions with sliding calipers. When the tumors reached a weight of 100 mg in weight as determined by the formula: [(weight, mg)=(length (mm)×width (mm))^2/2], treatment was initiated (Geran et al., Cancer Chemother. Rep., 3, 51-61 (1972)). Initially, mice were treated with 10 mg/kg dose once/week for 8 weeks. Subsequently, separate cohorts of mice were treated with 15 mg/kg weekly for 8 weeks and finally 10 mg/kg twice weekly for 8 weeks. The impact of treatment upon tumor growth was judged by direct measurement as described above. In addition, tumor progression was tracked by serological measurements, such as AFP levels. AFP levels were assayed weekly following each injection. Blood was taken retro-orbitally from each mouse. AFP levels were assayed immunochemically, using kits supplied by Abbott Laboratories (Waukegan, Ill.) and based on the methods of Wang et al. (Cancer Res., 50, 869s-872s (1990)). Measurements of AFP levels were intended to complement direct physical measurement as an indicator of tumor progression. Generally, serum AFP levels behave as if they reflect tumor mass. However, it should be noted that moderately raised AFP levels have been found in some patients with uncomplicated liver disease. Despite these false positives, serum AFP levels have been successfully used to monitor response to therapy (Johnson, J. Gastroent Hepatol., 14 (Suppl.), s32-s36 (1999)) especially in the tumor-bearing nude mice, where the human tumor is the only source of human AFP. Results from such assays provide an early indication of HCC potential before it is manifested as physical tumor growth. The data generated by the above experiments should aid in the derivation of starting doses for larger mammal testing and subsequent clinical studies.

The mark [2] stands for this setting: 10 mg/kg twice weekly, after 3 weeks.

Each structure is given as a SMILES string.

As to `CC(=O)N[C@H]1[C@H](OCCCCCCNC(=O)CC[C@H](NC(=O)CC[C@H](NC(=O)[C@H](Cc2ccc(O)cc2)NC(=O)C2CCC(CN3C(=O)CC(SCCCCCCOP(=O)(O)OC[C@H]4O[C@@H](n5cc(F)c(=O)[nH]c5=O)C[C@@H]4O)C3=O)CC2)C(=O)NCCCCCCO[C@@H]2O[C@H](CO)[C@H](O)[C@H](O)[C@H]2NC(C)=O)C(=O)NCCCCCCO[C@@H]2O[C@H](CO)[C@H](O)[C@H](O)[C@H]2NC(C)=O)O[C@H](CO)[C@H](O)[C@@H]1O` (stereo partly shown) [po 1-mer, YEE(ahGalNAc)3-SMCC-poFU], the cellular uptake was 5 pmoles/million cells in the data set with Hep G2 cells (1 μM, 30 min); 24.75 pmoles/10^6 cells in the data set with Hep G2 cells (1 μM, 480 min); “about 26 pmole/10^6 cells” with Hep G2 cells (2 μM, 480 min); 35 pmoles/10^6 cells in the data set on Hep G2 cells (8 μM, 120 min). Moreover, the “cellular uptake (peak)” value in the data set with Hep G2 cells (1 μM, 480 min) is given as 25 pmoles/million cells. In addition, the maximal cellular uptake with Hep G2 cells (4 μM) was 36 pmoles/million cells; with Hep G2 cells (8 μM), 43 pmoles/million cells. Besides, the maximum cellular uptake result in the data set on Hep G2 cells (4 μM, 480 min) is “about 36 pmoles/10^6 cells”; in the data set with Hep G2 cells (8 μM, 480 min), about 42 pmoles/10^6 cells. The body weight entry in data set [1] (setting [2]) is reported as “moderate reduction in body weight”. The tumor progression entry in data set [1] (setting [2]) is listed as “significant reduction in tumor progression”; in data set [1] (15 mg/kg weekly, after 5 injections), “almost static”. Also, the tumors entry in data set [1] (10 mg/kg twice weekly, after 6 weeks) is reported as “beyond detection”. The “effect on tumor growth” value in data set [1] (10 mg/kg weekly for 8 weeks) is “mild inhibition of tumor growth”. Moreover, the “histological analysis of tumors” value in data set [1] (10 mg/kg weekly, after 8 weeks) was “reduced mitotic index and increased amount of necrotic tissue”. Besides, the average tumor weight result in data set [1] (10 mg/kg weekly, at 8 weeks (saline control about 15 g)) was “about 7 g”. The “body weight (clinical toxicity)” value in data set [1] (15 mg/kg weekly) is reported as “steady weight gain equivalent to that of a non-tumor bearing mice”. In addition, in data set [1] (15 mg/kg weekly, after 2 additional injections (7)), the tumor burden result was “tumor burden was eradicated in one mouse and the tumor size was reduced in the others”. For the same compound, in data set [1] (15 mg/kg weekly, after treatment), the “histological analysis of tumor” value is “very low mitotic index and extensive necrosis”.

The values are drawn from US7262177B2, “Conjugates of glycosylated/galactosylated peptide, bifunctional linker, and nucleotidic monomers/polymers, and related compositions and methods of use” (priority 2000, dated 2007).
